Assay results from ChEMBL document CHEMBL3885861, “Open TG-GATES”.

Species on record: Rattus norvegicus
Assay: Open TG-GATES - Regimen: Single
Assay type: toxicity, organism-based, Sprague-Dawley
Parameters: regimen Single, gender Male, age 6 weeks
Details: in vivo, po, 0 mg/kg, route gavage, dose level Control; for APTT / Bas / Eos / Fbg / Hb / Ht / Lym / MCH / MCHC / Mono / Neu / Plat / RBC / Ret / WBC: tissue Blood; for KIDNEY_L / KIDNEY_R / KIDNEY_TOTAL: tissue Kidney; for LIVER: tissue Liver; for ALP / ALT / AST / BUN / CRE / Ca / Cl / DBIL / GLC / IP / K / LDH / Na / PL / RALB / TBIL / TC / TG / TP / gamma-GTP: tissue Plasma

Question: For O=C(CCCN1CCC(O)(c2ccc(Cl)cc2)CC1)c1ccc(F)cc1 [HALOPERIDOL], which TERMINAL_BW (3 h) is on record?
Answer: 208.8 g

Question: And the APTT (3 h)?
Answer: 16.5 s

Question: What about the Bas (3 h) of the same molecule?
Answer: 0%

Question: What about the Eos (3 h) of the same molecule?
Answer: 0%

Question: And the Fbg (3 h)?
Answer: 202 mg/dL

Question: What about the Hb (3 h) of the same molecule?
Answer: 13.4 g/dL

Question: What about the Ht (3 h) of the same molecule?
Answer: 40.2%

Question: What about the Lym (3 h) of the same molecule?
Answer: 77.8%

Question: What about the MCH (3 h) of the same molecule?
Answer: 21.8 pg

Question: And the MCHC (3 h)?
Answer: 33.5%

Question: What about the Mono (3 h) of the same molecule?
Answer: 9.2%

Question: And the Neu (3 h)?
Answer: 13%

Question: What about the Plat (3 h) of the same molecule?
Answer: 94.5 x10_4/uL

Question: And the RBC (3 h)?
Answer: 616.8 x10_4/ul

Question: And the Ret (3 h)?
Answer: 8.7%

Question: And the WBC (3 h)?
Answer: 114.5 x10_2/uL

Question: And the KIDNEY_L (3 h)?
Answer: 1 g

Question: And the KIDNEY_R (3 h)?
Answer: 1 g

Question: What about the KIDNEY_TOTAL (3 h) of the same molecule?
Answer: 2 g

Question: What about the LIVER (3 h) of the same molecule?
Answer: 10.1 g

Question: And the ALP (3 h)?
Answer: 1053.2 IU/L

Question: What about the ALT (3 h) of the same molecule?
Answer: 34.4 IU/L

Question: And the AST (3 h)?
Answer: 64.4 IU/L

Question: And the BUN (3 h)?
Answer: 16 mg/dL

Question: What about the CRE (3 h) of the same molecule?
Answer: 0.5 mg/dL

Question: What about the Ca (3 h) of the same molecule?
Answer: 11.4 mg/dL

Question: What about the Cl (3 h) of the same molecule?
Answer: 105 meq/L

Question: What about the DBIL (3 h) of the same molecule?
Answer: 0.006 mg/dL

Question: What about the GLC (3 h) of the same molecule?
Answer: 185.6 mg/dL

Question: And the IP (3 h)?
Answer: 9.4 mg/dL

Question: And the K (3 h)?
Answer: 5.2 meq/L

Question: And the LDH (3 h)?
Answer: 85 IU/L

Question: What about the Na (3 h) of the same molecule?
Answer: 139 meq/L

Question: What about the PL (3 h) of the same molecule?
Answer: 151.4 mg/dL

Question: What about the RALB (3 h) of the same molecule?
Answer: 3.7 g/dL

Question: What about the TBIL (3 h) of the same molecule?
Answer: 0.4 mg/dL

Question: And the TC (3 h)?
Answer: 82.8 mg/dL

Question: And the TG (3 h)?
Answer: 63.2 mg/dL

Question: And the TP (3 h)?
Answer: 5.6 g/dL

Question: What about the gamma-GTP (3 h) of the same molecule?
Answer: 1.4 IU/L

Question: And the TERMINAL_BW (6 h)?
Answer: 200.9 g

Question: What about the APTT (6 h) of the same molecule?
Answer: 16.6 s

Question: And the Bas (6 h)?
Answer: 0%

Question: What about the Eos (6 h) of the same molecule?
Answer: 0.2%

Question: And the Fbg (6 h)?
Answer: 206.4 mg/dL

Question: What about the Hb (6 h) of the same molecule?
Answer: 13.6 g/dL

Question: And the Ht (6 h)?
Answer: 40.6%

Question: What about the Lym (6 h) of the same molecule?
Answer: 72%

Question: And the MCH (6 h)?
Answer: 21.7 pg

Question: And the MCHC (6 h)?
Answer: 33.4%

Question: And the Mono (6 h)?
Answer: 5.8%

Question: And the Neu (6 h)?
Answer: 22%

Question: What about the Plat (6 h) of the same molecule?
Answer: 102.2 x10_4/uL

Question: What about the RBC (6 h) of the same molecule?
Answer: 625.8 x10_4/ul

Question: And the Ret (6 h)?
Answer: 8.8%

Question: What about the WBC (6 h) of the same molecule?
Answer: 95.9 x10_2/uL

Question: What about the KIDNEY_L (6 h) of the same molecule?
Answer: 0.9 g

Question: And the KIDNEY_R (6 h)?
Answer: 1 g

Question: What about the KIDNEY_TOTAL (6 h) of the same molecule?
Answer: 1.9 g

Question: What about the LIVER (6 h) of the same molecule?
Answer: 9.3 g

Question: What about the ALP (6 h) of the same molecule?
Answer: 862.2 IU/L

Question: What about the ALT (6 h) of the same molecule?
Answer: 34.8 IU/L

Question: What about the AST (6 h) of the same molecule?
Answer: 62 IU/L

Question: What about the BUN (6 h) of the same molecule?
Answer: 11.4 mg/dL

Question: What about the CRE (6 h) of the same molecule?
Answer: 0.5 mg/dL

Question: What about the Ca (6 h) of the same molecule?
Answer: 10.7 mg/dL

Question: And the Cl (6 h)?
Answer: 104.8 meq/L

Question: And the DBIL (6 h)?
Answer: 0.036 mg/dL

Question: What about the GLC (6 h) of the same molecule?
Answer: 175.2 mg/dL

Question: What about the IP (6 h) of the same molecule?
Answer: 10.1 mg/dL

Question: And the K (6 h)?
Answer: 5.1 meq/L

Question: What about the LDH (6 h) of the same molecule?
Answer: 92.4 IU/L

Question: What about the Na (6 h) of the same molecule?
Answer: 137.6 meq/L

Question: And the PL (6 h)?
Answer: 142.8 mg/dL

Question: What about the RALB (6 h) of the same molecule?
Answer: 3.7 g/dL

Question: What about the TBIL (6 h) of the same molecule?
Answer: 0.3 mg/dL

Question: And the TC (6 h)?
Answer: 80.2 mg/dL

Question: And the TG (6 h)?
Answer: 47.8 mg/dL

Question: What about the TP (6 h) of the same molecule?
Answer: 5.6 g/dL

Question: What about the gamma-GTP (6 h) of the same molecule?
Answer: 1.4 IU/L

Question: What about the TERMINAL_BW (9 h) of the same molecule?
Answer: 199.3 g

Question: And the APTT (9 h)?
Answer: 16.7 s

Question: And the Bas (9 h)?
Answer: 0%

Question: And the Eos (9 h)?
Answer: 0.8%

Question: And the Fbg (9 h)?
Answer: 205.4 mg/dL

Question: What about the Hb (9 h) of the same molecule?
Answer: 13.7 g/dL

Question: What about the Ht (9 h) of the same molecule?
Answer: 41%

Question: What about the Lym (9 h) of the same molecule?
Answer: 68.6%

Question: And the MCH (9 h)?
Answer: 22.1 pg

Question: And the MCHC (9 h)?
Answer: 33.3%

Question: And the Mono (9 h)?
Answer: 6.6%

Question: What about the Neu (9 h) of the same molecule?
Answer: 24%

Question: And the Plat (9 h)?
Answer: 103.6 x10_4/uL

Question: What about the RBC (9 h) of the same molecule?
Answer: 619.2 x10_4/ul

Question: And the Ret (9 h)?
Answer: 8.3%

Question: What about the WBC (9 h) of the same molecule?
Answer: 96.1 x10_2/uL

Question: And the KIDNEY_L (9 h)?
Answer: 0.9 g

Question: And the KIDNEY_R (9 h)?
Answer: 0.9 g

Question: And the KIDNEY_TOTAL (9 h)?
Answer: 1.8 g

Question: What about the LIVER (9 h) of the same molecule?
Answer: 8.6 g

Question: What about the ALP (9 h) of the same molecule?
Answer: 860.2 IU/L

Question: What about the ALT (9 h) of the same molecule?
Answer: 32.6 IU/L

Question: What about the AST (9 h) of the same molecule?
Answer: 59.8 IU/L

Question: What about the BUN (9 h) of the same molecule?
Answer: 12.2 mg/dL

Question: And the CRE (9 h)?
Answer: 0.5 mg/dL

Question: And the Ca (9 h)?
Answer: 10.5 mg/dL

Question: And the Cl (9 h)?
Answer: 106.2 meq/L

Question: And the DBIL (9 h)?
Answer: 0.024 mg/dL

Question: And the GLC (9 h)?
Answer: 188.4 mg/dL

Question: And the IP (9 h)?
Answer: 10.8 mg/dL

Question: What about the K (9 h) of the same molecule?
Answer: 5.1 meq/L

Question: What about the LDH (9 h) of the same molecule?
Answer: 83.8 IU/L

Question: And the Na (9 h)?
Answer: 138 meq/L

Question: What about the PL (9 h) of the same molecule?
Answer: 134.4 mg/dL

Question: And the RALB (9 h)?
Answer: 3.8 g/dL

Question: And the TBIL (9 h)?
Answer: 0.4 mg/dL

Question: What about the TC (9 h) of the same molecule?
Answer: 76.8 mg/dL

Question: And the TG (9 h)?
Answer: 35.4 mg/dL

Question: And the TP (9 h)?
Answer: 5.5 g/dL

Question: What about the gamma-GTP (9 h) of the same molecule?
Answer: 1.8 IU/L

Question: What about the TERMINAL_BW (24 h) of the same molecule?
Answer: 214.4 g

Question: And the APTT (24 h)?
Answer: 16.2 s

Question: What about the Bas (24 h) of the same molecule?
Answer: 0%

Question: And the Eos (24 h)?
Answer: 0.8%

Question: And the Fbg (24 h)?
Answer: 205.8 mg/dL

Question: What about the Hb (24 h) of the same molecule?
Answer: 13.3 g/dL

Question: What about the Ht (24 h) of the same molecule?
Answer: 39.3%

Question: What about the Lym (24 h) of the same molecule?
Answer: 75.4%

Question: What about the MCH (24 h) of the same molecule?
Answer: 22 pg

Question: And the MCHC (24 h)?
Answer: 33.9%

Question: And the Mono (24 h)?
Answer: 6.8%

Question: What about the Neu (24 h) of the same molecule?
Answer: 17%

Question: And the Plat (24 h)?
Answer: 107.6 x10_4/uL

Question: What about the RBC (24 h) of the same molecule?
Answer: 605.8 x10_4/ul

Question: And the Ret (24 h)?
Answer: 8.9%

Question: And the WBC (24 h)?
Answer: 82.8 x10_2/uL

Question: What about the KIDNEY_L (24 h) of the same molecule?
Answer: 0.9 g

Question: And the KIDNEY_R (24 h)?
Answer: 1 g

Question: What about the KIDNEY_TOTAL (24 h) of the same molecule?
Answer: 1.9 g

Question: And the LIVER (24 h)?
Answer: 10.6 g

Question: And the ALP (24 h)?
Answer: 1093.2 IU/L

Question: What about the ALT (24 h) of the same molecule?
Answer: 43 IU/L

Question: What about the AST (24 h) of the same molecule?
Answer: 64.8 IU/L

Question: What about the BUN (24 h) of the same molecule?
Answer: 19.2 mg/dL

Question: And the CRE (24 h)?
Answer: 0.6 mg/dL

Question: And the Ca (24 h)?
Answer: 11 mg/dL

Question: What about the Cl (24 h) of the same molecule?
Answer: 104.6 meq/L

Question: What about the DBIL (24 h) of the same molecule?
Answer: 0.028 mg/dL

Question: And the GLC (24 h)?
Answer: 185.4 mg/dL

Question: And the IP (24 h)?
Answer: 8.2 mg/dL

Question: What about the K (24 h) of the same molecule?
Answer: 4.9 meq/L

Question: And the LDH (24 h)?
Answer: 82.6 IU/L

Question: What about the Na (24 h) of the same molecule?
Answer: 138.8 meq/L

Question: And the PL (24 h)?
Answer: 165.4 mg/dL

Question: What about the RALB (24 h) of the same molecule?
Answer: 3.7 g/dL

Question: And the TBIL (24 h)?
Answer: 0.4 mg/dL

Question: And the TC (24 h)?
Answer: 87.2 mg/dL

Question: What about the TG (24 h) of the same molecule?
Answer: 94.8 mg/dL

Question: And the TP (24 h)?
Answer: 5.7 g/dL
